In ChEMBL document CHEMBL1124001, “Synthesis and antileukemic activity of bis[[(carbamoyl)oxy]methyl]- substituted pyrrolo[2,1-a]isoquinolines, pyrrolo[1,2-a]quinolines, pyrrolo[2,1-a]isobenzazepines, and pyrrolo[1,2-a]benzazepines” (J Med Chem, 1988):

Key:
[1] = system: Mus musculus; experiment: Net log cell kill was determined after injecting 240 mg/kg intraperitoneally in CD2F1 mice; assay type: functional; settings: route intraperitoneal
[2] = system: Mus musculus; experiment: Body weight change of test animals to that of control was determined after injection at 480 mg/kg intraperitoneally in CD2F1 mice; assay type: functional; settings: route intraperitoneal
[3] = system: Mus musculus; experiment: Toxicity day survivors was determined by the ratio of animals survived to that of test animals at 60 mg/kg intraperitoneally in CD2F1 mice; 6/6; assay type: organism-based; parameters: dose 60 mg/kg, route intraperitoneal; settings: in vivo, ip
[4] = system: Mus musculus; experiment: Body weight change of test animals to that of control was determined after injection at 240 mg/kg intraperitoneally in CD2F1 mice; assay type: functional; settings: route intraperitoneal
[5] = system: Mus musculus; experiment: Net log cell kill was determined after injecting 480 mg/kg intraperitoneally in CD2F1 mice; assay type: functional; settings: route intraperitoneal
[6] = system: Mus musculus; experiment: Ratio of treated to that of untreated tumor-bearing control animals at 480 mg/kg intraperitoneally in CD2F1 mice was determined; assay type: functional; settings: route intraperitoneal
[7] = system: Mus musculus; experiment: Toxicity day survivors was determined by the ratio of animals survived to that of test animals at 120 mg/kg intraperitoneally in CD2F1 mice; 6/6; assay type: organism-based; parameters: dose 120 mg/kg, route intraperitoneal; settings: in vivo, ip
[8] = system: Mus musculus; experiment: Net log cell kill was determined after injecting 60 mg/kg intraperitoneally in CD2F1 mice; assay type: functional; settings: route intraperitoneal
[9] = system: Mus musculus; experiment: Body weight change of test animals to that of control was determined after injection at 120 mg/kg intraperitoneally in CD2F1 mice; assay type: functional; settings: route intraperitoneal
[10] = system: Mus musculus; experiment: Ratio of treated to that of untreated tumor-bearing control animals at 240 mg/kg intraperitoneally in CD2F1 mice was determined; assay type: functional; settings: route intraperitoneal
[11] = system: Mus musculus; experiment: Ratio of treated to that of untreated tumor-bearing control animals at 120 mg/kg intraperitoneally in CD2F1 mice was determined; assay type: functional; settings: route intraperitoneal
[12] = system: Mus musculus; experiment: Toxicity day survivors was determined by the ratio of animals survived to that of test animals at 240 mg/kg intraperitoneally in CD2F1 mice; 6/6; assay type: organism-based; parameters: dose 240 mg/kg, route intraperitoneal; settings: in vivo, ip
[13] = system: Mus musculus; experiment: Body weight change of test animals to that of control was determined after injection at 60 mg/kg intraperitoneally in CD2F1 mice; assay type: functional; settings: route intraperitoneal
[14] = system: Mus musculus; experiment: Ratio of treated to that of untreated tumor-bearing control animals at 60 mg/kg intraperitoneally in CD2F1 mice was determined; assay type: functional; settings: route intraperitoneal
[15] = system: Mus musculus; experiment: Net log cell kill was determined after injecting 120 mg/kg intraperitoneally in CD2F1 mice; assay type: functional; settings: route intraperitoneal
[16] = system: Mus musculus; experiment: Toxicity day survivors was determined by the ratio of animals survived to that of test animals at 480 mg/kg intraperitoneally in CD2F1 mice; 6/6; assay type: organism-based; parameters: dose 480 mg/kg, route intraperitoneal; settings: in vivo, ip
[17] = system: Mus musculus; experiment: Body weight change of test animals to that of control was determined after injection at 30 mg/kg intraperitoneally in CD2F1 mice; assay type: functional; settings: route intraperitoneal
[18] = system: Mus musculus; experiment: Net log cell kill was determined after injecting 30 mg/kg intraperitoneally in CD2F1 mice; assay type: functional; settings: route intraperitoneal
[19] = system: Mus musculus; experiment: Toxicity day survivors was determined by the ratio of animals survived to that of test animals at 30 mg/kg intraperitoneally in CD2F1 mice; 6/6; assay type: organism-based; parameters: dose 30 mg/kg, route intraperitoneal; settings: in vivo, ip
[20] = species: Mus musculus; experiment: Ratio of treated to that of untreated tumor-bearing control animals was determined; assay type: functional
[21] = system: Mus musculus; experiment: Body weight change of test animals to that of control was determined after injection at 15 mg/kg intraperitoneally in CD2F1 mice; assay type: functional; settings: route intraperitoneal
[22] = system: Mus musculus; experiment: Ratio of treated to that of untreated tumor-bearing control animals 30 mg/kg intraperitoneally in CD2F1 mice was determined; assay type: functional; settings: route intraperitoneal
[23] = system: Mus musculus; experiment: Toxicity day survivors was determined by the ratio of animals survived to that of test animals at 15 mg/kg intraperitoneally in CD2F1 mice; 6/6; assay type: organism-based; parameters: dose 15 mg/kg, route intraperitoneal; settings: in vivo, ip
[24] = system: Mus musculus; experiment: Net log cell kill was determined after injecting 15 mg/kg intraperitoneally in CD2F1 mice; assay type: functional; settings: route intraperitoneal
[25] = system: Mus musculus; experiment: Ratio of treated to that of untreated tumor-bearing control animals at 15 mg/kg intraperitoneally in CD2F1 mice was determined; assay type: functional; settings: route intraperitoneal
[26] = system: Mus musculus; experiment: Ratio of treated to that of untreated tumor-bearing control animals at 6.25 mg/kg intraperitoneally in CD2F1 mice was determined; assay type: functional; settings: route intraperitoneal
[27] = system: Mus musculus; experiment: Net log cell kill was determined after injecting 12.5 mg/kg intraperitoneally in CD2F1 mice; assay type: functional; settings: route intraperitoneal
[28] = system: Mus musculus; experiment: Toxicity day survivors was determined by the ratio of animals survived to that of test animals at 50 mg/kg intraperitoneally in CD2F1 mice; 6/6; assay type: organism-based; parameters: dose 50 mg/kg, route intraperitoneal; settings: in vivo, ip
[29] = system: Mus musculus; experiment: Ratio of treated to that of untreated tumor-bearing control animals at 50 mg/kg intraperitoneally in CD2F1 mice was determined; assay type: functional; settings: route intraperitoneal
[30] = system: Mus musculus; experiment: Body weight change of test animals to that of control was determined after injection at 12.5 mg/kg intraperitoneally in CD2F1 mice; assay type: functional; settings: route intraperitoneal
[31] = system: Mus musculus; experiment: Ratio of treated to that of untreated tumor-bearing control animals at 12.5 mg/kg intraperitoneally in CD2F1 mice was determined; assay type: functional; settings: route intraperitoneal
[32] = system: Mus musculus; experiment: Net log cell kill was determined after injecting 25 mg/kg intraperitoneally in CD2F1 mice; assay type: functional; settings: route intraperitoneal
[33] = system: Mus musculus; experiment: Toxicity day survivors was determined by the ratio of animals survived to that of test animals at 25 mg/kg intraperitoneally in CD2F1 mice; 6/6; assay type: organism-based; parameters: dose 25 mg/kg, route intraperitoneal; settings: in vivo, ip
[34] = system: Mus musculus; experiment: Ratio of treated to that of untreated tumor-bearing control animals at 25 mg/kg intraperitoneally in CD2F1 mice was determined; assay type: functional; settings: route intraperitoneal
[35] = system: Mus musculus; experiment: Body weight change of test animals to that of control was determined after injection at 25 mg/kg intraperitoneally in CD2F1 mice; assay type: functional; settings: route intraperitoneal
[36] = system: Mus musculus; experiment: Net log cell kill was determined after injecting 6.25 mg/kg intraperitoneally in CD2F1 mice; assay type: functional; settings: route intraperitoneal
[37] = system: Mus musculus; experiment: Toxicity day survivors was determined by the ratio of animals survived to that of test animals at 12.5 mg/kg intraperitoneally in CD2F1 mice; 6/6; assay type: organism-based; parameters: dose 12.5 mg/kg, route intraperitoneal; settings: in vivo, ip
[38] = system: Mus musculus; experiment: Net log cell kill was determined after injecting 50 mg/kg intraperitoneally in CD2F1 mice; assay type: functional; settings: route intraperitoneal
[39] = system: Mus musculus; experiment: Body weight change of test animals to that of control was determined after injection at 100 mg/kg intraperitoneally in CD2F1 mice; assay type: functional; settings: route intraperitoneal
[40] = system: Mus musculus; experiment: Body weight change of test animals to that of control was determined after injection at 6.25 mg/kg intraperitoneally in CD2F1 mice; assay type: functional; settings: route intraperitoneal
[41] = system: Mus musculus; experiment: Toxicity day survivors was determined by the ratio of animals survived to that of test animals at 6.25 mg/kg intraperitoneally in CD2F1 mice; 6/6; assay type: organism-based; parameters: dose 6.25 mg/kg, route intraperitoneal; settings: in vivo, ip
[42] = system: Mus musculus; experiment: Body weight change of test animals to that of control was determined after injection at 50 mg/kg intraperitoneally in CD2F1 mice; assay type: functional; settings: route intraperitoneal
[43] = system: Mus musculus; experiment: Toxicity day survivors was determined by the ratio of animals survived to that of test animals at 100 mg/kg intraperitoneally in CD2F1 mice; 2/6; assay type: organism-based; parameters: dose 100 mg/kg, route intraperitoneal; settings: in vivo, ip

Question: Which results are given for `CC(C)NC(=O)OCc1cn2c(c1COC(=O)NC(C)C)-c1cc(Cl)c(Cl)cc1CC2`?
Answer: KE [1]: 0.1; T-C [2]: -3.6 g; TDS [3]: 6; T-C [4]: -2.3 g; KE [5]: 5.05; T/C [6]: 185%; TDS [7]: 6; KE [8]: -1.54; T-C [9]: -2.2 g; T/C [10]: 137%; T/C [11]: 130%; TDS [12]: 6; T-C [13]: -0.4 g; T/C [14]: 86%; KE [15]: -0.68; TDS [16]: 6

Question: What does the source list for `COc1ccc2c(ccc3c(COC(=O)NC(C)C)c(COC(=O)NC(C)C)c(C)n32)c1`?
Answer: KE [1]: 1.19; TDS [3]: 6; T-C [4]: -3.5 g; T-C [17]: 0 g; TDS [7]: 6; KE [18]: -0.42; TDS [19]: 6; KE [8]: -0.3; T-C [9]: -0.6 g; T/C [10]: 154%; T/C [20]: 128%; T/C [11]: 131%; TDS [12]: 6; T-C [13]: 0.1 g; T-C [21]: -0.1 g; T/C [22]: 112%; TDS [23]: 6; KE [15]: -0.12; KE [24]: -1.47; T/C [25]: 109%

Question: Which results are given for `Cc1c(COC(=O)NC(C)C)c(COC(=O)NC(C)C)c2n1CCc1ccccc1-2`?
Answer: T/C [26]: 153%; KE [27]: 1.6; TDS [28]: 6; T/C [29]: 174%; T-C [30]: -2.6 g; T/C [31]: 157%; KE [32]: 2.24; TDS [33]: 6; T/C [34]: 166%; T-C [35]: -4.2 g; KE [36]: 1.28; TDS [37]: 6; KE [38]: 2.82; T-C [39]: -3.8 g; T-C [40]: -0.9 g; TDS [41]: 6; T-C [42]: -4 g; TDS [43]: 2
